In US10253039B2, “Inhibitors of bacterial DNA gyrase with efficacy against gram-negative bacteria” (priority 2014, dated 2019):
≈ marks a conversion by molar mass, not a printed value. Where two headings read alike, the source gives them in different places.

Experiments:
Type in all cases: cell-based
[1] = system: Staphylococcus aureus subsp. aureus; experiment: MIC, 20-strain panel; conditions: read-out: MIC
Outline: (§1)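 Growth inhibition was scored after overnight culture (16-18 hours, 37° C., shaking) by looking for turbidity; the first clear well in a triplicate 2-fold compound series defined the MIC. Strains were inoculated at 1:10000 into LB.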

[2] = system: E. coli MG1655; experiment: MIC, 20-strain panel; conditions: Escherichia coli, read-out: MIC
Outline: as §1

[3] = system: Streptococcus agalactiae; experiment: MIC, 20-strain panel
Outline: as §1

[4] = system: Klebsiella pneumoniae subsp. pneumoniae; experiment: MIC, 20-strain panel
Outline: as §1

[5] = system: Salmonella enterica subsp. enterica typhimurium; experiment: MIC, 20-strain panel
Outline: as §1

[6] = system: E. coli JW5503 (deltolC); experiment: MIC, 20-strain panel; conditions: Escherichia coli
Outline: as §1

[7] = system: Staphylococcus epidermidis; experiment: MIC, 20-strain panel
Outline: as §1

[8] = system: Streptococcus pyogenes; experiment: MIC, 20-strain panel
Outline: as §1

[9] = system: Shigella flexneri; experiment: MIC, 20-strain panel
Outline: as §1

[10] = system: Staphylococcus saprophyticus subsp. saprophyticus; experiment: MIC, 20-strain panel
Outline: as §1

[11] = system: Edwardsiella tarda; experiment: MIC, microdilution in 96-well plates
Outline: as §1

[12] = system: E. coli BW25113; experiment: MIC, microdilution in 96-well plates; conditions: Escherichia coli, read-out: MIC
Outline: as §1

[13] = Staphylococcus aureus subsp. aureus
[14] = Klebsiella pneumoniae subsp. pneumoniae
[15] = Salmonella enterica subsp. enterica Typhimurium
[16] = H: Staphylococcus aureus subsp. aureus
[17] = E: Klebsiella pneumoniae subsp. pneumoniae
[18] = F: Salmonella enterica subsp. enterica Typhimurium

SMILES | MIC [1, 13] | MIC ([2]; MG1655, E. coli MG1655) | MIC [3] | MIC [4, 14] | MIC [5, 15] | MIC ([6]; E. coli JW5503 (deltolC)) | MIC [7] | MIC [8] | MIC [9] | MIC [10] | MIC [11] | MIC ([12]; BW25113, E. coli BW25113) | MIC [1, 16] | MIC ([2]; MG1655, A: E. coli MG1655) | MIC [4, 17] | MIC [5, 18] | MIC ([6]; C: E. coli JW5503 (deltolC)) | MIC ([9]; G: Shigella flexneri) | MIC ([11]; D: Edwardsiella tarda) | MIC ([12]; BW25113, B: E. coli BW25113)
N#Cc1cccc(S(=O)(=O)N[C@@H]2CCN(Cc3ccc(-n4cccn4)cc3)C2)c1 [Compound 145] | > 8 µg/mL | > 8 µg/mL | > 8 µg/mL | > 8 µg/mL | > 8 µg/mL | 8 µg/mL (≈ 19.6 µM) | > 8 µg/mL | > 8 µg/mL | > 8 µg/mL | > 8 µg/mL | > 8 µg/mL | > 8 µg/mL | – | – | – | – | – | – | – | –
O=S(=O)(N[C@@H]1CCN(Cc2ccc(-c3ccccc3)cc2)C1)c1cc(C(F)(F)F)ccc1Cl [Compound 47] | – | – | > 8 µg/mL | – | – | – | ~8 µg/mL (≈ 16.2 µM) | ~8 µg/mL (≈ 16.2 µM) | – | > 8 µg/mL | – | – | > 8 µg/mL | > 8 µg/mL | > 8 µg/mL | ~8 µg/mL (≈ 16.2 µM) | 1 µg/mL (≈ 2.02 µM) | > 8 µg/mL | > 8 µg/mL | > 8 µg/mL
O=S(=O)(N[C@@H]1CCN(Cc2ccc(OC3CC3)cc2)C1)c1cnc2ccccc2c1 [Compound 95] | – | – | > 8 µg/mL | – | – | – | > 8 µg/mL | > 8 µg/mL | – | > 8 µg/mL | – | – | > 8 µg/mL | > 8 µg/mL | > 8 µg/mL | > 8 µg/mL | > 8 µg/mL | > 8 µg/mL | > 8 µg/mL | > 8 µg/mL
CC(C)Oc1ccc(CN2CC[C@@H](NS(=O)(=O)c3cc(C#N)ccc3Cl)C2)cc1 [Compound 10] | – | – | > 8 µg/mL | – | – | – | > 8 µg/mL | > 8 µg/mL | – | > 8 µg/mL | – | – | > 8 µg/mL | > 8 µg/mL | > 8 µg/mL | 8 µg/mL (≈ 18.4 µM) | 0.25 µg/mL (≈ 0.576 µM) | > 8 µg/mL | > 8 µg/mL | > 8 µg/mL
Cc1ccc(S(=O)(=O)N[C@@H]2CCN(Cc3ccc(-c4ccccc4)cc3)C2)cc1C#N [Compound 131] | > 8 µg/mL | > 8 µg/mL | > 8 µg/mL | > 8 µg/mL | > 8 µg/mL | 8 µg/mL (≈ 18.5 µM) | > 8 µg/mL | > 8 µg/mL | > 8 µg/mL | > 8 µg/mL | > 8 µg/mL | > 8 µg/mL | – | – | – | – | – | – | – | –
N#Cc1cccc(S(=O)(=O)N[C@@H]2CCN(Cc3cn(-c4ccccc4)nn3)C2)c1 [Compound 124] | – | – | > 8 µg/mL | – | – | – | > 8 µg/mL | > 8 µg/mL | – | > 8 µg/mL | – | – | > 8 µg/mL | > 8 µg/mL | > 8 µg/mL | > 8 µg/mL | > 8 µg/mL | > 8 µg/mL | > 8 µg/mL | > 8 µg/mL
CC(C)Oc1ccc(CN2CC[C@@H](NS(=O)(=O)c3cnc4ccsc4c3)C2)cc1 [Compound 164] | > 8 µg/mL | > 8 µg/mL | > 8 µg/mL | > 8 µg/mL | > 8 µg/mL | > 8 µg/mL | > 8 µg/mL | > 8 µg/mL | > 8 µg/mL | > 8 µg/mL | > 8 µg/mL | > 8 µg/mL | – | – | – | – | – | – | – | –
CC(C)Oc1ccc(CN2CC[C@@H](NS(=O)(=O)c3cc(S(=O)(=O)c4ccccc4)cs3)C2)cc1 [Compound 29] | – | – | > 8 µg/mL | – | – | – | > 8 µg/mL | > 8 µg/mL | – | > 8 µg/mL | – | – | > 8 µg/mL | > 8 µg/mL | > 8 µg/mL | > 8 µg/mL | > 8 µg/mL | > 8 µg/mL | > 8 µg/mL | > 8 µg/mL
Cc1ccncc1S(=O)(=O)N[C@@H]1CCN(Cc2ccc(-c3ccccc3)cc2)C1 [Compound 137] | > 8 µg/mL | > 8 µg/mL | > 8 µg/mL | > 8 µg/mL | > 8 µg/mL | 2 µg/mL (≈ 4.91 µM) | > 8 µg/mL | > 8 µg/mL | > 8 µg/mL | > 8 µg/mL | > 8 µg/mL | > 8 µg/mL | – | – | – | – | – | – | – | –
CC(C)(C)Oc1ccc(CN2CC[C@@H](NS(=O)(=O)c3cccc(C#N)c3)C2)cc1 [Compound 13] | – | – | > 8 µg/mL | – | – | – | > 8 µg/mL | > 8 µg/mL | – | > 8 µg/mL | – | – | > 8 µg/mL | > 8 µg/mL | > 8 µg/mL | > 8 µg/mL | 8 µg/mL (≈ 19.3 µM) | > 8 µg/mL | > 8 µg/mL | > 8 µg/mL
N#Cc1cc(S(=O)(=O)N[C@@H]2CCN(Cc3ccc(-c4ccccc4)cc3)C2)ccc1F [Compound 19] | – | – | > 8 µg/mL | – | – | – | > 8 µg/mL | > 8 µg/mL | – | > 8 µg/mL | – | – | > 8 µg/mL | > 8 µg/mL | > 8 µg/mL | 4 µg/mL (≈ 9.18 µM) | 0.25 µg/mL (≈ 0.574 µM) | > 8 µg/mL | > 8 µg/mL | > 8 µg/mL
O=S(=O)(N[C@@H]1CCN(Cc2ccc(OC(F)F)cc2)C1)c1cccc(OC(F)(F)F)c1 [Compound 106] | – | – | > 8 µg/mL | – | – | – | > 8 µg/mL | > 8 µg/mL | – | > 8 µg/mL | – | – | > 8 µg/mL | > 8 µg/mL | > 8 µg/mL | > 8 µg/mL | > 8 µg/mL | > 8 µg/mL | > 8 µg/mL | > 8 µg/mL
CC(=O)c1cc(S(=O)(=O)N[C@@H]2CCN(Cc3ccc(OC4CC4)cc3)C2)ccc1C [Compound 133] | > 8 µg/mL | > 8 µg/mL | > 8 µg/mL | > 8 µg/mL | > 8 µg/mL | > 8 µg/mL | > 8 µg/mL | > 8 µg/mL | > 8 µg/mL | > 8 µg/mL | > 8 µg/mL | > 8 µg/mL | – | – | – | – | – | – | – | –
CC(C)Oc1ccc(CN2CC[C@@H](NS(=O)(=O)c3cncc(F)c3)C2)cc1 [Compound 150] | > 8 µg/mL | > 8 µg/mL | > 8 µg/mL | > 8 µg/mL | > 8 µg/mL | > 8 µg/mL | > 8 µg/mL | > 8 µg/mL | > 8 µg/mL | > 8 µg/mL | > 8 µg/mL | > 8 µg/mL | – | – | – | – | – | – | – | –
CC(C)Oc1ccc(CN2CC[C@@H](NS(=O)(=O)c3cccnc3)C2)cc1 [Compound 167] | > 8 µg/mL | > 8 µg/mL | > 8 µg/mL | > 8 µg/mL | > 8 µg/mL | > 8 µg/mL | > 8 µg/mL | > 8 µg/mL | > 8 µg/mL | > 8 µg/mL | > 8 µg/mL | > 8 µg/mL | – | – | – | – | – | – | – | –
O=S(=O)(N[C@@H]1CCN(Cc2ccc(-c3ccccc3)cc2)C1)c1cnc2ccccc2c1 [Compound 178] | > 8 µg/mL | > 8 µg/mL | > 8 µg/mL | > 8 µg/mL | > 8 µg/mL | > 8 µg/mL | > 8 µg/mL | > 8 µg/mL | > 8 µg/mL | > 8 µg/mL | > 8 µg/mL | > 8 µg/mL | – | – | – | – | – | – | – | –
